Measured values published in article PMC10165273, “Itch receptor MRGPRX4 interacts with the receptor activity–modifying proteins” (The Journal of Biological Chemistry, 2023).
Like-named read-outs stand apart in the source and are kept apart here.

Molecular target: T1, MRGPRX4 + RAMP1 (Homo sapiens, UniProt Q96LA9)
T1 construct: expressed in transfected cells; host or cells: HEK293T
Experiment: IP1 accumulation, MRGPRX4 coexpressed with RAMP1
Type: cell-based
Details: for activation at 100 µM / activation at 20 µM / activation at 4 µM / activation at 0.8 µM / activation at […] / activation at 0.032 µM: 2 h; for Emax: Figure 4a bottom, MRGPRX4 alone = 100, read-out: efficacy
Procedure: HEK293T cells were transfected with 1 pg/cell of MRGPRX4 DNA, and the amount of DNA was kept constant at 2 pg/cell with pcDNA3.1(+) empty vector, unless otherwise specified. Twenty four hours after transfection, IP1 assay was performed as previously described ([51]). When applicable, cells were treated with 1 μM YM254890 (YM) or different concentrations of U73122 for 1 h prior to addition of agonist or buffer. After incubation for 2 h, HTRF reagents and IP1 calibration standards were added and incubated for 2 h in the dark at room temperature. Time-resolved fluorescence signals were read on the BioTek Synergy NEO-TRF Hybrid multi-mode reader (BioTek Instruments). All data were carried out in three independent experiments with three technical replicate each.
For a homogenous transfection of MRGPRX4, a master mix of MRGPRX4 DNA was made prior to addition of the RAMP DNA. […]
Data reduction, standard calibration, and transformation of HTRF data were performed as previously described ([51]). Normalized IP1 values were calculated relative to the unstimulated mock-transfected cells (set to 0%) and fully stimulated MRGPRX4 (alone if applicable) (set to 100%).

T1 sequence (Q96LA9 whole entry): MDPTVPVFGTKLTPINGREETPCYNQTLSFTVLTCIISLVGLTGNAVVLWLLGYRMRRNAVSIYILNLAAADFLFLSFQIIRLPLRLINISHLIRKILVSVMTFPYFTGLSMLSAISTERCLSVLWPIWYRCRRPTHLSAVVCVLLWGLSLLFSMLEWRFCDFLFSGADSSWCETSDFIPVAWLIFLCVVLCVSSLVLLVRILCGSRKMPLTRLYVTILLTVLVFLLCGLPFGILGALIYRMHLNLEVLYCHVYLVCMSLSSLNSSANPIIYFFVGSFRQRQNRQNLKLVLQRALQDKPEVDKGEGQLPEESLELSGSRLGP

Compound: CC(C)[C@H]1CC[C@H](C(=O)N[C@H](Cc2ccccc2)C(=O)O)CC1 [Nateglinide]
- activation at 100 µM (log [nateglinide] (M) -4, MRGPRX4+RAMP10.5pg 1:0.5, Supplementary Figure 5d, read-out: IP1 accumulation (normalized)): 99.2%
- activation at 20 µM (log [nateglinide] (M) -4.69897, MRGPRX4+RAMP10.5pg 1:0.5, Supplementary Figure 5d, read-out: IP1 accumulation (normalized)): 78.1%
- activation at 20 µM (log [nateglinide] (M) -4.69897, MRGPRX4+RAMP1 0.75pg 1:0.75, Supplementary Figure 5d, read-out: IP1 accumulation (normalized)): 84.8%
- activation at 20 µM (log [nateglinide] (M) -4.69897, MRGPRX4+RAMP1 1pg 1:1, Supplementary Figure 5d, 5g, read-out: IP1 accumulation (normalized)): 72.1%
- activation at 4 µM (log [nateglinide] (M) -5.39794, MRGPRX4+RAMP10.5pg 1:0.5, Supplementary Figure 5d, read-out: IP1 accumulation (normalized)): 49.7%
- activation at 4 µM (log [nateglinide] (M) -5.39794, MRGPRX4+RAMP1 0.75pg 1:0.75, Supplementary Figure 5d, read-out: IP1 accumulation (normalized)): 44.1%
- activation at 4 µM (log [nateglinide] (M) -5.39794, MRGPRX4+RAMP1 1pg 1:1, Supplementary Figure 5d, 5g, read-out: IP1 accumulation (normalized)): 39.2%
- activation at 0.8 µM (log [nateglinide] (M) -6.09691, MRGPRX4+RAMP10.5pg 1:0.5, Supplementary Figure 5d, read-out: IP1 accumulation (normalized)): 18.6%
- activation at 0.8 µM (log [nateglinide] (M) -6.09691, MRGPRX4+RAMP1 0.75pg 1:0.75, Supplementary Figure 5d, read-out: IP1 accumulation (normalized)): 14.6%
- activation at 0.8 µM (log [nateglinide] (M) -6.09691, MRGPRX4+RAMP1 1pg 1:1, Supplementary Figure 5d, 5g, read-out: IP1 accumulation (normalized)): 12.9%
- activation at […] (log [nateglinide] (M) -6.79588, MRGPRX4+RAMP10.5pg 1:0.5, Supplementary Figure 5d, read-out: IP1 accumulation (normalized)): 8.57%
- activation at […] (log [nateglinide] (M) -6.79588, MRGPRX4+RAMP1 0.75pg 1:0.75, Supplementary Figure 5d, read-out: IP1 accumulation (normalized)): 11.2%
- activation at 0.032 µM (log [nateglinide] (M) -7.49485, MRGPRX4+RAMP10.5pg 1:0.5, Supplementary Figure 5d, read-out: IP1 accumulation (normalized)): 7.92%
- activation at 0.032 µM (log [nateglinide] (M) -7.49485, MRGPRX4+RAMP1 0.75pg 1:0.75, Supplementary Figure 5d, read-out: IP1 accumulation (normalized)): 8.7%
- activation at 0.032 µM (log [nateglinide] (M) -7.49485, MRGPRX4+RAMP1 1pg 1:1, Supplementary Figure 5d, 5g, read-out: IP1 accumulation (normalized)): 7.65%
- activation at 100 µM (ratio MRGPRX4:RAMP1 1:0.25, log [Nateglinide] (M) -4, Fig S3a, read-out: IP1 accumulation): 102%
- activation at 20 µM (ratio MRGPRX4:RAMP1 1:0.25, log [Nateglinide] (M) -4.69897, Fig S3a, read-out: IP1 accumulation): 76.7%
- activation at 4 µM (ratio MRGPRX4:RAMP1 1:0.25, log [Nateglinide] (M) -5.39794, Fig S3a, read-out: IP1 accumulation): 42.2%
- activation at 0.8 µM (ratio MRGPRX4:RAMP1 1:0.25, log [Nateglinide] (M) -6.09691, Fig S3a, read-out: IP1 accumulation): 29.4%
- activation at […] (ratio MRGPRX4:RAMP1 1:0.25, log [Nateglinide] (M) -6.79588, Fig S3a, read-out: IP1 accumulation): 26.1%
- activation at 0.032 µM (ratio MRGPRX4:RAMP1 1:0.25, log [Nateglinide] (M) -7.49485, Fig S3a, read-out: IP1 accumulation): 24%
- activation at 100 µM (ratio MRGPRX4:RAMP1 1:1, log [Nateglinide] (M) -4, Fig S3a, read-out: IP1 accumulation): 114%
- activation at 20 µM (ratio MRGPRX4:RAMP1 1:1, log [Nateglinide] (M) -4.69897, Fig S3a, read-out: IP1 accumulation): 87.9%
- activation at 4 µM (ratio MRGPRX4:RAMP1 1:1, log [Nateglinide] (M) -5.39794, Fig S3a, read-out: IP1 accumulation): 43.7%
- activation at 0.8 µM (ratio MRGPRX4:RAMP1 1:1, log [Nateglinide] (M) -6.09691, Fig S3a, read-out: IP1 accumulation): 22.8%
- activation at […] (ratio MRGPRX4:RAMP1 1:1, log [Nateglinide] (M) -6.79588, Fig S3a, read-out: IP1 accumulation): 17.6%
- activation at 0.032 µM (ratio MRGPRX4:RAMP1 1:1, log [Nateglinide] (M) -7.49485, Fig S3a, read-out: IP1 accumulation): 16%
- activation at 100 µM (ratio MRGPRX4:RAMP1 1:2, log [Nateglinide] (M) -4, Fig S3a, read-out: IP1 accumulation): 117%
- activation at 20 µM (ratio MRGPRX4:RAMP1 1:2, log [Nateglinide] (M) -4.69897, Fig S3a, read-out: IP1 accumulation): 93.3%
- activation at 4 µM (ratio MRGPRX4:RAMP1 1:2, log [Nateglinide] (M) -5.39794, Fig S3a, read-out: IP1 accumulation): 44.8%
- activation at 0.8 µM (ratio MRGPRX4:RAMP1 1:2, log [Nateglinide] (M) -6.09691, Fig S3a, read-out: IP1 accumulation): 18.6%
- activation at […] (ratio MRGPRX4:RAMP1 1:2, log [Nateglinide] (M) -6.79588, Fig S3a, read-out: IP1 accumulation): 14.5%
- activation at 0.032 µM (ratio MRGPRX4:RAMP1 1:2, log [Nateglinide] (M) -7.49485, Fig S3a, read-out: IP1 accumulation): 12.5%
- activation at 100 µM (ratio MRGPRX4:RAMP 1:0.5, log [Nateglinide] (M) -4, Fig S3a, read-out: IP1 accumulation): 113%
- activation at 20 µM (ratio MRGPRX4:RAMP 1:0.5, log [Nateglinide] (M) -4.69897, Fig S3a, read-out: IP1 accumulation): 93.7%
- activation at 4 µM (ratio MRGPRX4:RAMP 1:0.5, log [Nateglinide] (M) -5.39794, Fig S3a, read-out: IP1 accumulation): 46.5%
- activation at 0.8 µM (ratio MRGPRX4:RAMP 1:0.5, log [Nateglinide] (M) -6.09691, Fig S3a, read-out: IP1 accumulation): 24.4%
- activation at […] (ratio MRGPRX4:RAMP 1:0.5, log [Nateglinide] (M) -6.79588, Fig S3a, read-out: IP1 accumulation): 18.5%
- activation at 0.032 µM (ratio MRGPRX4:RAMP 1:0.5, log [Nateglinide] (M) -7.49485, Fig S3a, read-out: IP1 accumulation): 18.7%
- Emax (DNA ratio MRGPRX4:RAMP1 1:0.25): 109%
- Emax (DNA ratio MRGPRX4:RAMP1 1:0.5): 115%
- Emax (DNA ratio MRGPRX4:RAMP1 1:0.75): 118%
